In patent US20070167488A1, “Novel therapeutic use” (Leo Pharma A/S, priority 2003, published 2007):

Test system: IL-2
Assay: Inhibition of IL-2 production in phytohemagglutinin-activated human PBMCs (sandwich ELISA)
Assay type: cell-based
Details: Homo sapiens, PBMC, 46 h, approximately 46 hours, read-out: IL-2 pIC50 (converted)
Protocol: Peripheral blood mononuclear cells (PBMCs) were isolated from human blood. The lymphocytes, a fraction of the PBMCs, were activated to secrete IL-2 using the polyclonal mitogen phytohemagglutinin. The test compounds were added in concentrations from 10^−5 to 10^−10, and the cells (10^6/ml) were incubated in microtiter wells at 37° C. for approximately 46 hours.
After 46 hours the cells were centrifuged down for 25 minutes at 1000×g and the supernatants were transferred to transferred to microtiter wells precoated with a monoclonal antibody against human IL-2. The IL-2 concentration in the supernatants was determined by a sandwich ELISA. Microtiter plates were coated (1 μg/ml) with a monoclonal antibody (R&D, UK) against human IL-2, washed 4 times, blocked with 1% casein buffer for 2 hours and washed 2 times. 100 μl sample was added to each well and incubated overnight. All samples were tested in triplicate. 100 μl IL-2 standards (R&D, UK) at a concentration range of 10000-0 pg/ml were tested in triplicate. After incubation the plates were washed and incubated with biotinylated polyclonal secondary antibody against human IL-2 (R&D, UK) for 45 minutes and thereafter washed 4 times. 100 μl enzyme conjugate, horseradish peroxidase conjugated streptavidin diluted 1:4000 (Zymed, USA), was added to all wells and incubated for 30 minutes. 100 μl OPD substrate (KEM EN TEC-DK) was added and the enzyme/substrate reaction stopped after 10 minutes at room temperature with 50 μl 1 M H2SO4. The colour development (optical density—OD) was determined at 492 nm on an ELISA reader and the background OD at 620 nm subtracted).

| Compound | IC50 [nM] |
| --- | --- |
| O=C1Nc2ccccc2/C1=C/c1c[nH]c2ccc(F)cc12 | 100 |
| O=C1Nc2ccccc2/C1=C\c1cc(Cl)ccc1Cl | 3.16 |
| Cc1cc(C[n+]2ccccc2)[nH]c1/C=C1\C(=O)Nc2ccccc21 | 6.31 |
| COc1ccc2[nH]cc(/C=C3\C(=O)Nc4ccccc43)c2c1 | 10 |
| O=C1Nc2ccccc2/C1=C/c1c[nH]c2ccc(OCc3ccccc3)cc12 | 10 |
| COc1ccc2c(/C=C3\C(=O)Nc4ccccc43)c[nH]c2c1 | 0.2 |
| COc1ccc2c(/C=C3\C(=O)Nc4ccccc43)cn(C)c2c1 | 6.31 |
| O=C1Nc2ccccc2/C1=C/c1c[nH]c2cccc(OCc3ccccc3)c12 | 100 |
| N#Cc1cccc2c1NC(=O)/C2=C\c1c[nH]c2ccccc12 | 1 |
| N#Cc1ccc2c(c1)/C(=C/c1c[nH]c3ccccc13)C(=O)N2 | 1 |
| O=C1Nc2c(F)cccc2/C1=C/c1c[nH]c2ccccc12 | 0.316 |
| Cc1[nH]c(/C=C2\C(=O)Nc3ccccc32)c(C)c1Cl | 1 |
| O=C1Nc2cc(C(F)(F)F)ccc2/C1=C/c1c[nH]c2ccccc12 | 20 |
| O=C1Nc2ccc(F)c(F)c2/C1=C/c1c[nH]c2ccccc12 | 3.98 |
| COc1ccc2c(c1)/C(=C/c1c[nH]c3ccccc13)C(=O)N2 | 31.6 |
| O=C1Nc2cc(Cl)ccc2/C1=C/c1c[nH]c2ccccc12 | 63.1 |
| COc1ccc(OC)c(/C=C2/C(=O)Nc3c(C#N)cccc32)c1 | 31.6 |
| COc1ccc(OC)c(/C=C2/C(=O)Nc3cc(S(C)(=O)=O)ccc32)c1 | 794 |
| COc1ccc(OC)c(/C=C2/C(=O)Nc3cc(C(F)(F)F)ccc32)c1 | 10 |
| COc1ccc(OC)c(/C=C2/C(=O)Nc3c(F)cccc32)c1 | 501 |
| COc1ccc(OC)c(/C=C2/C(=O)Nc3cc(Cl)ccc32)c1 | 31.6 |
| O=C1Nc2ccccc2/C1=C\c1cc(Br)ccc1Br | 39.8 |
| COc1ccc(Br)cc1/C=C1/C(=O)Nc2ccccc21 | 10 |
| COc1ccc(F)c(/C=C2/C(=O)Nc3ccccc32)c1 | 63.1 |
| CCN(CC)CCNC(=O)c1cc(C)c(/C=C2\C(=O)Nc3ccccc32)[nH]1 | 39.8 |
| O=C1Nc2ccccc2/C1=C/c1ccc(Cl)cc1Cl | 200 |
| CCOC(=O)CCn1cc(/C=C2\C(=O)Nc3ccccc32)c2ccccc21 | 200 |

| Compound | IC50 [nM] |
| --- | --- |
| COc1ccc(O)c(/C=C2\C(=O)Nc3ccccc32)c1 | 200 |
| O=C(O)CCn1cc(/C=C2\C(=O)Nc3ccccc32)c2ccccc21 | 200 |
| Cc1cc(C(=O)NCCCC2CCN(C=O)CC2)[nH]c1/C=C1\C(=O)Nc2ccccc21 | 50.1 |
| Cc1cc(C(=O)NCCCCCCO)[nH]c1/C=C1\C(=O)Nc2ccccc21 | 100 |
| COC(=O)CCCNC(=O)c1cc(C)c(/C=C2\C(=O)Nc3ccccc32)[nH]1 | 50.1 |
| Cc1cc(C)cc(-c2ccc(N(C)CCN(C)C)c(/C=C3\C(=O)Nc4ccccc43)c2)c1 | 63.1 |
| Cc1cc(C(=O)NCC2(c3ccc(Cl)cc3)CC2)[nH]c1/C=C1\C(=O)Nc2ccccc21 | 63.1 |
| Cc1cc(C(=O)NCC2CCCO2)[nH]c1/C=C1\C(=O)Nc2ccccc21 (centres unmarked) | 20 |
| CCOC(=O)CCCCCNC(=O)c1cc(C)c(/C=C2\C(=O)Nc3ccccc32)[nH]1 | 79.4 |
| CCOC(=O)CCCNC(=O)c1cc(C)c(/C=C2\C(=O)Nc3ccccc32)[nH]1 | 39.8 |
| Cc1cc(C(=O)NCCCCCO)[nH]c1/C=C1\C(=O)Nc2ccccc21 | 63.1 |
| Cc1cc(C(=O)NCCCc2ccccc2)[nH]c1/C=C1\C(=O)Nc2ccccc21 | 50.1 |
| Cc1cc(C(=O)NCCc2c[nH]c3ccccc23)[nH]c1/C=C1\C(=O)Nc2ccccc21 | 39.8 |
| Cc1cc(C(=O)NCCCCc2ccccc2)[nH]c1/C=C1\C(=O)Nc2ccccc21 | 100 |
| O=C1Nc2ccccc2/C1=C\c1ccc2cc[nH]c2c1 | 6.31 |
| Cc1cc(C(=O)NCC2CCCCC2)[nH]c1/C=C1\C(=O)Nc2ccccc21 | 31.6 |
| Cn1cc(/C(C(=O)O)=C2\C(=O)Nc3ccccc32)c2ccccc21 | 794 |
| CN1CCN(c2c(/C=C3\C(=O)Nc4ccccc43)c3ccccc3n2C)CC1 | 79.4 |
| Cc1cc(C(=O)OCc2ccncc2)[nH]c1/C=C1\C(=O)Nc2ccccc21 | 31.6 |
| Cc1cc(C(=O)OCc2ccccc2)[nH]c1/C=C1\C(=O)Nc2ccccc21 | 20 |
| Cc1cc(C)c(/C(C(=O)OCc2ccccc2)=C2\C(=O)Nc3ccccc32)[nH]1 | 20 |
| COc1ccc(OC)c(/C=C2/C(=O)N(O)c3ccccc32)c1 | 10 |
| CC(C)(C)OC(=O)N1C(=O)/C(=C\c2c[nH]c3ccccc23)c2ccccc21 | 1 |
| Cc1[nH]c(/C=C2\C(=O)N(O)c3ccccc32)c(C)c1Br | 1 |
| CON1C(=O)/C(=C\c2[nH]c(C)cc2C)c2ccccc21 | 10 |
| COc1ccc(OC)c(/C=C2\C(=O)N(OC)c3ccccc32)c1 | 20 |
